The term CLint scaled denotes the capacity of the preparation to metabolise the compound, expressed as a volume cleared per time. Read a high CLint scaled as rapid turnover. The term AUC denotes concentration integrated over time. As usually defined, the Cmax is the peak of the concentration-time curve. As usually defined, the bioavailability is dose-corrected exposure relative to a reference, in per cent.

The structures appear in SMILES notation. Where two headings read alike, the source gives them in different places. Where only a bound is given, the exact number is not on record here.

Data set [1] is described as follows: Metabolic stability in rat hepatocytes. The data set is classed as in vitro ADME. To be noted: cryopreserved hepatocytes, 1 μM, 1×10^6 cells/mL, 0-240 min; for half-life at 1 μM: read-out: Rat t1/2. As to the method:
(§1) Test compounds were incubated in rat and human hepatocytes and stability was assessed from the substrate […] approach. Test compounds were dissolved in dimethyl sulfoxide (DMSO) to create a 10 mM Stock, and then further diluted to create a 1000× Working Stock of 1 mM with DMSO in 96-well plates for test compounds and the positive control (midazolam). Vials containing cryopreserved hepatocytes were removed from the liquid nitrogen tank and immediately immersed in a 37° C. water bath. The vials were shaken gently until the contents had thawed and were then immediately emptied into 48 mL of pre-warmed HT Medium in a 50 mL conical tube. Cells remaining in the vial were resuspended with 1.0 mL of pre-warmed HT Medium and added to the conical tube. The tube was capped and then gently inverted several times to resuspend the hepatocytes. The cell suspension was centrifuged at 50×g at room temperature for 5 minutes and the supernatant discarded. The cell pellet was loosened by gently swirling the centrifuge tube and was re-suspended in 4 mL of warm Dulbecco's Modified Eagle medium (DMEM). Cell density was determined by a cell counter by Nexcelom, and DMEM medium was added to obtain a target density of 1×10^6 cells/mL. The assay was carried out in 96-well microtiter plates. Test Compounds were incubated at 1 μM with 1×10^6 cells/mL hepatocytes in DMEM for 0, 30, 60, 120 and 240 minutes. The incubation was carried out with gentle shaking at 37° C. under a humid atmosphere of 95% air/5% CO2. The volume of the incubation mixture was 37 μL with a final 0.1% DMSO. At each of the time points, the incubation was stopped by adding 150 μL quenching solution (100% acetonitrile, 0.1% formic acid containing bucetin as an internal standard for positive ESI mode). Subsequently, the mixtures were vortexed for 20 min and centrifuged at 4,000 RPM at 10° C. The supernatant (80 μL) was transferred to a clean 96-well plate and analyzed by LC-MS/MS. Midazolam at 1 μM with a final 0.1% DMSO was included as a positive control to verify assay performance. The percent parent remaining, intrinsic and predicted hepatic clearance and t1/2 were calculated. All samples were analyzed by LC-MS/MS using an AB Sciex API 4000 instrument, coupled to a Shimadzu LC-20AD LC Pump system. Separation was achieved using a Waters Atlantis T3 dC18 reverse phase HPLC column (20 mm×2.1 mm) at a flow rate of 0.5 mL/min. The mobile phase consisted of 0.1% formic acid in water (solvent A) and 0.1% formic acid in 100% acetonitrile (solvent B). Elution conditions are detailed below.
(§2) The ion optics of each test compound were optimized for their declustering potential (DP), […] (CE), collision-cell exit potential (CXP) and used in a selected ion monitoring experiment in the positive ion mode. The peak area ratio of each test compound to internal standard was then evaluated for stability. The extent of metabolism was calculated based on the disappearance of the test compound, compared to its initial concentration. The initial rates of clearance of the test compound were calculated using the linear regression plot of semi-log % remaining of the compound versus time. The elimination rate constant (k) of the linear regression plot was then used to determine t1/2 and the intrinsic clearance (CLint) using the following formula, where Chepatocyte (million cells/mL) is the cell density of the incubation:
(§3) The predicted hepatic clearance (CLhep) was calculated using the well stirred method with the following formula with CLint (in vivo) normalized based on liver weight: […]
(§4) The relevant physiological parameters of liver weight, blood flow, and hepatocellularity for various species are listed below: […]

In the next data set the test system is rat hepatocytes. Description: Metabolic stability in rat hepatocytes. The data set is classed as in vitro ADME. To be noted: predicted hepatic clearance, well stirred method. As to the method:
as §1, §2, §3, §4

Data set [2] in a line: Rat pharmacokinetics, oral dosing. The format is in vivo, Sprague-Dawley rats. To be noted: male, Sprague-Dawley, plasma; for half-life: read-out: Rat T1/2.
The nature of data set [3]: Metabolic stability in human hepatocytes. The format is in vitro ADME. To be noted: cryopreserved hepatocytes, 1 μM, 1×10^6 cells/mL, 0-240 min; for half-life at 1 μM: read-out: Human t1/2. As to the method: as §1, §2, §3, §4
The subject of the next data set is human hepatocytes. The data set is described as follows: Metabolic stability in human hepatocytes. The data set is classed as in vitro ADME. As to conditions: predicted hepatic clearance, well stirred method. The procedure: as §1, §2, §3, §4

For `COc1cc(C(=O)O)cc2c1nc(CN1CCC(c3cccc(OCc4ccc(C#N)cc4F)n3)CC1)n2C[C@@H]1CCO1` [Compound 8, (S)-2-((4-(6-((4-Cyano-2-fluorobenzyl)oxy)pyridin-2-yl)piperidin-1-yl)methyl)-4-methoxy-1-(oxetan-2-ylmethyl)-1H-benzo[d]imidazole-6-carboxylic acid], in data set [1], the CLint scaled at 1 μM is 27.4 ± 1.77 mL/min/kg and the half-life at 1 μM was 121 ± 7.83 min. In addition, the “Rat Clhep predicted” value in the data set with rat hepatocytes was 18.31 ± 1.71 mL/min/kg. In data set [2] (oral dosing at 3 mg/kg), the AUC is below 500 ng·h/mL, the Cmax was below 500 ng/mL, the half-life is at least 150 min and the bioavailability is below 25%. In data set [3], the intrinsic clearance (CLint scaled) at 1 μM came out at 6.18 ± 0.7 mL/min/kg and the half-life at 1 μM was 4.46 ± 0.67 min. In addition, in the data set on human hepatocytes, the “Human Clhep predicted” value was 4.76 ± 0.68 mL/min/kg.
On to `COc1cc(C(=O)O)cc2c1nc(CN1CCC(c3cccc(OCc4ccc(C#N)cc4F)n3)CC1)n2Cc1cncs1` [Compound 1, 2-((4-(6-((4-Cyano-2-fluorobenzyl)oxy)pyridin-2-yl)piperidin-1-yl)methyl)-4-methoxy-1-(thiazol-5-ylmethyl)-1H-benzo[d]imidazole-6-carboxylic acid], for which, in data set [1], the CLint scaled at 1 μM is 68.7 ± 3.5 mL/min/kg and the half-life at 1 μM was 48.4 ± 2.46 min. In the data set on rat hepatocytes, the “Rat Clhep predicted” value is listed as 30.61 ± 3.29 mL/min/kg. Besides, in data set [2] (oral dosing at 10 mg/kg), the AUC lay in the range of 500 to 2500 ng·h/mL, the Cmax is 500 to 1000 ng/mL, the half-life lay within 90 to 150 min and the bioavailability was 25 to 50%. Besides, in data set [3], the CLint scaled at 1 μM was 14.2 ± 0.97 mL/min/kg and the half-life at 1 μM was found to be 170 ± 11.6 min. For the same compound, in the data set on human hepatocytes, the “Human Clhep predicted” value is recorded as 8.42 ± 0.92 mL/min/kg.

The values above are taken from patent US20240368120A1 (Terns Pharmaceuticals, Inc., priority 2023, published 2024).
